Reference: ChEMBL document CHEMBL1201862, “PubChem BioAssay data set” (2004)
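All cell lines were grown in 96-well plates and treated with compound for 48 hours. Here, GI50 denotes the concentration required for 50% inhibition of growth.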 Active and inactive are the calls of the source. Cut-off read from the data, not from the text of the source: active = GI50 up to about 1.1 µM and inactive = higher.

Columns and labels:
Test in all cases: inhibition of tumour cell growth, NCI panel, 48 h
786-0 = test system: 786-0
A498 = test system: A498
A549 = test system: A549
ACHN = test system: ACHN
BT-549 = test system: BT-549
CAKI-1 = test system: CAKI-1
COLO 205 = test system: COLO 205
DU-145 = test system: DU-145
EKVX = test system: EKVX
HCT-116 = test system: HCT-116
HCT-15 = test system: HCT-15
HL-60 = test system: HL-60
HOP-62 = test system: HOP-62
HOP-92 = test system: HOP-92
HT-29 = test system: HT-29
Hs-578T = test system: Hs-578T
IGROV-1 = test system: IGROV-1
K562 = test system: K562
KM12 = test system: KM12
LOX IMVI = test system: LOX IMVI
M14 = test system: M14
MCF7 = test system: MCF7
MDA-MB-231 = test system: MDA-MB-231
MDA-MB-435 = test system: MDA-MB-435
MDA-N = test system: MDA-N
MOLT-4 = test system: MOLT-4
Malme-3M = test system: Malme-3M
NCI-H226 = test system: NCI-H226
NCI-H23 = test system: NCI-H23
NCI-H522 = test system: NCI-H522
NCI/ADR-RES = test system: NCI/ADR-RES
OVCAR-3 = test system: OVCAR-3
OVCAR-4 = test system: OVCAR-4
OVCAR-5 = test system: OVCAR-5
OVCAR-8 = test system: OVCAR-8
PC-3 = test system: PC-3
RPMI-8226 = test system: RPMI-8226
RXF 393 = test system: RXF 393
SF-268 = test system: SF-268
SF-295 = test system: SF-295
SK-MEL-28 = test system: SK-MEL-28
SK-MEL-2 = test system: SK-MEL-2
SK-MEL-5 = test system: SK-MEL-5
SK-OV-3 = test system: SK-OV-3
SN12C = test system: SN12C
SNB-19 = test system: SNB-19
SR = test system: SR
SW-620 = test system: SW-620
T47D = test system: T47D
TK-10 = test system: TK-10
U-251 = test system: U-251
UACC-257 = test system: UACC-257
UACC-62 = test system: UACC-62
UO-31 = test system: UO-31
CCRF-CEM = test system: CCRF-CEM
NCI-H460 = test system: NCI-H460
SF-539 = test system: SF-539
SNB-75 = test system: SNB-75

For CCC1c2[nH]c3ccccc3c2C[C@H]2C(=O)NC(Cc3c[nH]c4ccccc34)C(=O)N12 (stereo partly specified), the GI50 (786-0) was 23.4 µM (inactive), the GI50 (A498) was 30.5 µM (inactive) and the GI50 (A549) was 28 µM (inactive). For the same compound, the GI50 (ACHN) was 29.4 µM (inactive), the GI50 (BT-549) was 22.6 µM (inactive) and the GI50 (CAKI-1) was 28.8 µM (inactive). The GI50 (COLO 205) was 18.8 µM (inactive), the GI50 (DU-145) was 37.7 µM (inactive) and the GI50 (EKVX) was 32 µM (inactive). The GI50 (HCT-116) was 18 µM (inactive), the GI50 (HCT-15) was 28.5 µM and the GI50 (HL-60) was 19.2 µM (inactive). For the same compound, the GI50 (HOP-62) was 24 µM (inactive), the GI50 (HOP-92) was 26.5 µM (inactive) and the GI50 (HT-29) was 24.2 µM (inactive). For the same compound, the GI50 (Hs-578T) was 22.6 µM (inactive), the GI50 (IGROV-1) was 24.4 µM (inactive) and the GI50 (K562) was 27.6 µM (inactive). The GI50 (KM12) was 18.9 µM (inactive), the GI50 (LOX IMVI) was 22.1 µM (inactive) and the GI50 (M14) was 21.5 µM (inactive). For the same compound, the GI50 (MCF7) was 27.3 µM (inactive), the GI50 (MDA-MB-231) was 17.1 µM (inactive) and the GI50 (MDA-MB-435) was 19.7 µM (inactive). For the same compound, the GI50 (MDA-N) was 24.2 µM (inactive), the GI50 (MOLT-4) was 15.9 µM (inactive) and the GI50 (Malme-3M) was 18.4 µM (inactive). For the same compound, the GI50 (NCI-H226) was 32.7 µM (inactive), the GI50 (NCI-H23) was 25.5 µM (inactive) and the GI50 (NCI-H522) was 22.6 µM (inactive). The GI50 (NCI/ADR-RES) was 27.9 µM (inactive), the GI50 (OVCAR-3) was 18.2 µM (inactive) and the GI50 (OVCAR-4) was 29.9 µM (inactive). The GI50 (OVCAR-5) was 25.8 µM (inactive), the GI50 (OVCAR-8) was 32.7 µM (inactive) and the GI50 (PC-3) was 18.7 µM (inactive). For the same compound, the GI50 (RPMI-8226) was 19.4 µM (inactive), the GI50 (RXF 393) was 17.4 µM (inactive) and the GI50 (SF-268) was 29.7 µM (inactive). The GI50 (SF-295) was 17.3 µM (inactive), the GI50 (SK-MEL-28) was 33.9 µM (inactive) and the GI50 (SK-MEL-2) was 20 µM (inactive). The GI50 (SK-MEL-5) was 17.5 µM (inactive), the GI50 (SK-OV-3) was 34 µM (inactive) and the GI50 (SN12C) was 22.5 µM (inactive). For the same compound, the GI50 (SNB-19) was 37.5 µM (inactive), the GI50 (SR) was 16.9 µM (inactive) and the GI50 (SW-620) was 38.5 µM (inactive). For the same compound, the GI50 (T47D) was 26.4 µM (inactive), the GI50 (TK-10) was 23.2 µM (inactive) and the GI50 (U-251) was 17.5 µM (inactive). For the same compound, the GI50 (UACC-257) was 19.4 µM (inactive), the GI50 (UACC-62) was 15.5 µM (inactive) and the GI50 (UO-31) was 27.7 µM (inactive).
Cc1c2ccccc2c(C2C3C(=O)N(c4cccc5ccccc45)C(=O)C3ON2Cc2ccc(CC(N)=O)cc2)c2ccccc12 (stereo unspecified) was tested, and the GI50 (786-0) was 24.4 µM (inactive), the GI50 (A498) was 35.6 µM (inactive) and the GI50 (A549) was 16.3 µM (inactive). The GI50 (ACHN) was 18.5 µM (inactive), the GI50 (BT-549) was 30.2 µM (inactive) and the GI50 (CAKI-1) was 29.3 µM (inactive). The GI50 (CCRF-CEM) was 14.7 µM (inactive), the GI50 (COLO 205) was 7.78 µM (inactive) and the GI50 (DU-145) was 18.9 µM (inactive). For the same compound, the GI50 (EKVX) was 14.2 µM (inactive), the GI50 (HCT-116) was 18.2 µM (inactive) and the GI50 (HCT-15) was 18.4 µM. For the same compound, the GI50 (HL-60) was 16.1 µM (inactive), the GI50 (HOP-62) was 23 µM (inactive) and the GI50 (HOP-92) was 15.6 µM (inactive). For the same compound, the GI50 (HT-29) was 10.2 µM (inactive), the GI50 (Hs-578T) was 27.6 µM (inactive) and the GI50 (IGROV-1) was 17.7 µM (inactive). For the same compound, the GI50 (K562) was 15.7 µM (inactive), the GI50 (KM12) was 18.2 µM (inactive) and the GI50 (LOX IMVI) was 18.9 µM (inactive). For the same compound, the GI50 (M14) was 15 µM (inactive), the GI50 (MCF7) was 14.8 µM (inactive) and the GI50 (MDA-MB-231) was 23.3 µM (inactive). The GI50 (MDA-MB-435) was 17.9 µM (inactive), the GI50 (MDA-N) was 11.5 µM (inactive) and the GI50 (MOLT-4) was 8.24 µM (inactive). The GI50 (Malme-3M) was 28.6 µM (inactive), the GI50 (NCI-H226) was 13.4 µM (inactive) and the GI50 (NCI-H23) was 25.1 µM (inactive). The GI50 (NCI-H460) was 13.5 µM (inactive), the GI50 (NCI-H522) was 18.9 µM (inactive) and the GI50 (NCI/ADR-RES) was 39.7 µM (inactive). The GI50 (OVCAR-3) was 18.8 µM (inactive), the GI50 (OVCAR-4) was 19 µM (inactive) and the GI50 (OVCAR-5) was 24.9 µM (inactive). For the same compound, the GI50 (OVCAR-8) was 22.4 µM (inactive), the GI50 (PC-3) was 17.4 µM (inactive) and the GI50 (RXF 393) was 8.59 µM (inactive). For the same compound, the GI50 (SF-268) was 23.6 µM (inactive), the GI50 (SF-295) was 16.3 µM (inactive) and the GI50 (SF-539) was 12 µM (inactive). For the same compound, the GI50 (SK-MEL-28) was > 50 µM (inactive), the GI50 (SK-MEL-2) was 10.8 µM (inactive) and the GI50 (SK-MEL-5) was 10.5 µM (inactive). For the same compound, the GI50 (SK-OV-3) was 30.8 µM (inactive), the GI50 (SN12C) was 15.3 µM (inactive) and the GI50 (SNB-19) was 19.6 µM (inactive). For the same compound, the GI50 (SNB-75) was 9.55 µM (inactive), the GI50 (SR) was 14 µM (inactive) and the GI50 (SW-620) was 20.3 µM (inactive). For the same compound, the GI50 (T47D) was 15 µM (inactive), the GI50 (TK-10) was 16.7 µM (inactive) and the GI50 (U-251) was 19.8 µM (inactive). For the same compound, the GI50 (UACC-257) was 12.2 µM (inactive), the GI50 (UACC-62) was 14.4 µM (inactive) and the GI50 (UO-31) was 24.7 µM (inactive).
